Laboratory results: the NIST ThermoML archive (doi:10.1016/j.jct.2005.07.009)
Numbers after ± are expanded uncertainties.

Assays:
[1] = refractive index (Na D-line) (dimensionless); conditions: 298.15 K; 101.33 kPa; Liquid; Standard Abbe refractometry
[2] = 295.15 K; 101.33 kPa; Liquid; Vibrating tube method
[3] = excess molar enthalpy (molar enthalpy of mixing); xn = mol fraction of the nth substance listed; conditions: 298.15 K, 101 kPa, Liquid
[4] = xn = mol fraction of the nth substance listed; conditions: 298.15 K, 101 kPa, Liquid, Vibrating tube method

## BrCCCBr [1,3-dibromopropane]
[1]
  refractive index: 1.5204 ± 0.0008
[2]
  mass density: 1970.25 ± 1.1 kg/m3

## BrCCCCCCBr [1,6-dibromohexane]
[1]
  refractive index: 1.506 ± 0.0009
[2]
  mass density: 1601.8 ± 2.5 kg/m3

## BrCCBr [1,2-dibromoethane]
[1]
  refractive index: 1.5357 ± 0.0008
[2]
  mass density: 2168.3 ± 1.3 kg/m3

## BrCCCCCBr [1,5-dibromopentane]
[1]
  refractive index: 1.5099 ± 0.0009
[2]
  mass density: 1694.09 ± 2.6 kg/m3

## BrCCCCBr [1,4-dibromobutane]
[1]
  refractive index: 1.5163 ± 0.0008
[2]
  mass density: 1819.44 ± 1 kg/m3

## BrCCCCBr [1,4-dibromobutane] + CCOC=O
[3]; x2 = 0.0799
  excess molar enthalpy: 0.0549 ± 0.00155 kcal/mol
[3]; x2 = 0.1652
  excess molar enthalpy: 0.0897 ± 0.00239 kcal/mol
[3]; x2 = 0.2469
  excess molar enthalpy: 0.118 ± 0.00311 kcal/mol
[3]; x2 = 0.3246
  excess molar enthalpy: 0.135 ± 0.00359 kcal/mol
[3]; x2 = 0.397
  excess molar enthalpy: 0.145 ± 0.00382 kcal/mol
[3]; x2 = 0.4607
  excess molar enthalpy: 0.149 ± 0.00382 kcal/mol
[3]; x2 = 0.5109
  excess molar enthalpy: 0.147 ± 0.00382 kcal/mol
[3]; x2 = 0.5179
  excess molar enthalpy: 0.148 ± 0.00382 kcal/mol
[3]; x2 = 0.5525
  excess molar enthalpy: 0.145 ± 0.00382 kcal/mol
[3]; x2 = 0.5649
  excess molar enthalpy: 0.143 ± 0.00359 kcal/mol
[3]; x2 = 0.5973
  excess molar enthalpy: 0.14 ± 0.00359 kcal/mol
[3]; x2 = 0.6082
  excess molar enthalpy: 0.137 ± 0.00359 kcal/mol
[3]; x2 = 0.6459
  excess molar enthalpy: 0.131 ± 0.00335 kcal/mol
[3]; x2 = 0.6929
  excess molar enthalpy: 0.121 ± 0.00311 kcal/mol
[3]; x2 = 0.7514
  excess molar enthalpy: 0.103 ± 0.00263 kcal/mol
[3]; x2 = 0.8051
  excess molar enthalpy: 0.0847 ± 0.00229 kcal/mol
[3]; x2 = 0.8598
  excess molar enthalpy: 0.0615 ± 0.00172 kcal/mol
[3]; x2 = 0.9121
  excess molar enthalpy: 0.0378 ± 0.00117 kcal/mol
[3]; x2 = 0.9614
  excess molar enthalpy: 0.0142 ± 0.000621 kcal/mol
[4]; x2 = 0.0952
  mass density: 1765.32 ± 1.3 kg/m3
[4]; x2 = 0.1744
  mass density: 1716.81 ± 1.5 kg/m3
[4]; x2 = 0.2604
  mass density: 1660.33 ± 1.8 kg/m3
[4]; x2 = 0.3295
  mass density: 1611.72 ± 2 kg/m3
[4]; x2 = 0.4012
  mass density: 1557.95 ± 2.1 kg/m3
[4]; x2 = 0.4668
  mass density: 1505.48 ± 2.3 kg/m3
[4]; x2 = 0.5355
  mass density: 1446.96 ± 2.4 kg/m3
[4]; x2 = 0.5888
  mass density: 1398.87 ± 2.5 kg/m3
[4]; x2 = 0.6436
  mass density: 1346.56 ± 2.5 kg/m3
[4]; x2 = 0.6981
  mass density: 1291.4 ± 2.6 kg/m3
[4]; x2 = 0.7934
  mass density: 1186.14 ± 2.6 kg/m3
[4]; x2 = 0.9238
  mass density: 1023.59 ± 2.5 kg/m3
[4]; x2 = 0.9623
  mass density: 970.42 ± 2.5 kg/m3

## BrCCCBr [1,3-dibromopropane] + CCOC(=O)CC
[3]; x2 = 0.0471
  excess molar enthalpy: 0.00559 ± 0.000908 kcal/mol
[3]; x2 = 0.1006
  excess molar enthalpy: 0.0087 ± 0.001 kcal/mol
[3]; x2 = 0.1564
  excess molar enthalpy: 0.00918 ± 0.00103 kcal/mol
[3]; x2 = 0.2139
  excess molar enthalpy: 0.00786 ± 0.00098 kcal/mol
[3]; x2 = 0.2707
  excess molar enthalpy: 0.00387 ± 0.00086 kcal/mol
[3]; x2 = 0.3244
  excess molar enthalpy: -0.000813 ± 0.000765 kcal/mol
[3]; x2 = 0.3765
  excess molar enthalpy: -0.00605 ± 0.000932 kcal/mol
[3]; x2 = 0.4201
  excess molar enthalpy: -0.0111 ± 0.0011 kcal/mol
[3]; x2 = 0.4478
  excess molar enthalpy: -0.0156 ± 0.00122 kcal/mol
[3]; x2 = 0.4591
  excess molar enthalpy: -0.0195 ± 0.00134 kcal/mol
[3]; x2 = 0.493
  excess molar enthalpy: -0.0144 ± 0.00598 kcal/mol
[3]; x2 = 0.4983
  excess molar enthalpy: -0.0205 ± 0.00139 kcal/mol
[3]; x2 = 0.5563
  excess molar enthalpy: -0.0245 ± 0.00151 kcal/mol
[3]; x2 = 0.6207
  excess molar enthalpy: -0.026 ± 0.00155 kcal/mol
[3]; x2 = 0.6908
  excess molar enthalpy: -0.0251 ± 0.00153 kcal/mol
[3]; x2 = 0.7671
  excess molar enthalpy: -0.0219 ± 0.00141 kcal/mol
[3]; x2 = 0.8476
  excess molar enthalpy: -0.0164 ± 0.00124 kcal/mol
[3]; x2 = 0.9262
  excess molar enthalpy: -0.00906 ± 0.00103 kcal/mol
[4]; x2 = 0.1075
  mass density: 1839.36 ± 1.4 kg/m3
[4]; x2 = 0.161
  mass density: 1775.98 ± 1.6 kg/m3
[4]; x2 = 0.2159
  mass density: 1711.67 ± 1.7 kg/m3
[4]; x2 = 0.2732
  mass density: 1645.81 ± 1.8 kg/m3
[4]; x2 = 0.3842
  mass density: 1520.67 ± 2 kg/m3
[4]; x2 = 0.4468
  mass density: 1451.66 ± 2.2 kg/m3
[4]; x2 = 0.5011
  mass density: 1392.66 ± 2.2 kg/m3
[4]; x2 = 0.5622
  mass density: 1327.28 ± 2.3 kg/m3
[4]; x2 = 0.6827
  mass density: 1201.05 ± 2.4 kg/m3
[4]; x2 = 0.7443
  mass density: 1137.95 ± 2.4 kg/m3
[4]; x2 = 0.8686
  mass density: 1013.23 ± 2.4 kg/m3

## BrCCCCBr [1,4-dibromobutane] + CCCCC(=O)OCC
[3]; x2 = 0.0901
  excess molar enthalpy: 0.0101 ± 0.000526 kcal/mol
[3]; x2 = 0.1832
  excess molar enthalpy: 0.0134 ± 0.000598 kcal/mol
[3]; x2 = 0.2717
  excess molar enthalpy: 0.0117 ± 0.00055 kcal/mol
[3]; x2 = 0.3528
  excess molar enthalpy: 0.00638 ± 0.000478 kcal/mol
[3]; x2 = 0.4123
  excess molar enthalpy: -0.00198 ± 0.000406 kcal/mol
[3]; x2 = 0.4598
  excess molar enthalpy: -0.00851 ± 0.000502 kcal/mol
[3]; x2 = 0.4897
  excess molar enthalpy: -0.0118 ± 0.000574 kcal/mol
[3]; x2 = 0.5049
  excess molar enthalpy: -0.0126 ± 0.000574 kcal/mol
[3]; x2 = 0.5621
  excess molar enthalpy: -0.0171 ± 0.000669 kcal/mol
[3]; x2 = 0.6266
  excess molar enthalpy: -0.0197 ± 0.000741 kcal/mol
[3]; x2 = 0.6967
  excess molar enthalpy: -0.0208 ± 0.000765 kcal/mol
[3]; x2 = 0.7722
  excess molar enthalpy: -0.0197 ± 0.000741 kcal/mol
[3]; x2 = 0.852
  excess molar enthalpy: -0.016 ± 0.000645 kcal/mol
[3]; x2 = 0.9288
  excess molar enthalpy: -0.00963 ± 0.000526 kcal/mol
[4]; x2 = 0.0539
  mass density: 1762.5 ± 1.2 kg/m3
[4]; x2 = 0.109
  mass density: 1704.93 ± 1.3 kg/m3
[4]; x2 = 0.2129
  mass density: 1598.64 ± 1.6 kg/m3
[4]; x2 = 0.2678
  mass density: 1543.48 ± 1.7 kg/m3
[4]; x2 = 0.3262
  mass density: 1485.57 ± 1.8 kg/m3
[4]; x2 = 0.3815
  mass density: 1431.53 ± 1.9 kg/m3
[4]; x2 = 0.469
  mass density: 1347.31 ± 2.1 kg/m3
[4]; x2 = 0.5155
  mass density: 1303.25 ± 2.1 kg/m3
[4]; x2 = 0.554
  mass density: 1267.17 ± 2.1 kg/m3
[4]; x2 = 0.6207
  mass density: 1205.19 ± 2.2 kg/m3
[4]; x2 = 0.7373
  mass density: 1099.12 ± 2.3 kg/m3
[4]; x2 = 0.8643
  mass density: 986.49 ± 2.3 kg/m3
[4]; x2 = 0.9324
  mass density: 927.28 ± 2.3 kg/m3
